PubChem BioAssay AID1963870 (Molecular Pharmacology Branch, DTP, NCI, 2024)

System: 292921-168-R-J2-PDC KRAS tumor spheroid viability
Assay: Anticancer human tumor 292921-168-R-J2-PDC patient-derived pancreatic carcinoma cell line growth inhibition [KRAS2]
Settings: spheroids with HUVEC and MSC; for viability, T/C: stronger effect = lower value
How it was run: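 Combination screen of spheroid viability in tumor-cell co-cultures with endothelial (HUVEC) and mesenchymal stem cell stroma. Each agent was tested in half-log dilutions, topping at clinical Cmax or at 10 microM without a known Cmax.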

[1] = curve of first compound, second compound 0.0316 µM
[2] = curve of first compound, second compound 0.1 µM
[3] = curve of first compound, second compound 0.316 µM
[4] = curve of first compound, second compound 1 µM
[5] = curve of first compound, second compound 3.16 µM
[6] = second compound 0.0316 µM, first compound 0.0316 µM
[7] = second compound 0.0316 µM, first compound 0.1 µM
[8] = second compound 0.0316 µM, first compound 0.316 µM
[9] = second compound 0.0316 µM, first compound 1 µM
[10] = second compound 0.0316 µM, first compound 3.16 µM
[11] = second compound 0.0316 µM, first compound 10 µM
[12] = second compound 0.1 µM, first compound 0.0316 µM
[13] = second compound 0.1 µM, first compound 0.1 µM
[14] = second compound 0.1 µM, first compound 0.316 µM
[15] = second compound 0.1 µM, first compound 1 µM
[16] = second compound 0.1 µM, first compound 3.16 µM
[17] = second compound 0.1 µM, first compound 10 µM
[18] = second compound 0.316 µM, first compound 0.0316 µM
[19] = second compound 0.316 µM, first compound 0.1 µM
[20] = second compound 0.316 µM, first compound 0.316 µM
[21] = second compound 0.316 µM, first compound 1 µM
[22] = second compound 0.316 µM, first compound 3.16 µM
[23] = second compound 0.316 µM, first compound 10 µM
[24] = second compound 1 µM, first compound 0.0316 µM
[25] = second compound 1 µM, first compound 0.1 µM
[26] = second compound 1 µM, first compound 0.316 µM
[27] = second compound 1 µM, first compound 1 µM
[28] = second compound 1 µM, first compound 3.16 µM
[29] = second compound 1 µM, first compound 10 µM
[30] = second compound 3.16 µM, first compound 0.0316 µM
[31] = second compound 3.16 µM, first compound 0.1 µM
[32] = second compound 3.16 µM, first compound 0.316 µM
[33] = second compound 3.16 µM, first compound 1 µM
[34] = second compound 3.16 µM, first compound 3.16 µM
[35] = second compound 3.16 µM, first compound 10 µM
[36] = curve of first compound, second compound 10 µM
[37] = second compound 10 µM, first compound 0.0316 µM
[38] = second compound 10 µM, first compound 0.1 µM
[39] = second compound 10 µM, first compound 0.316 µM
[40] = second compound 10 µM, first compound 1 µM
[41] = second compound 10 µM, first compound 3.16 µM
[42] = second compound 10 µM, first compound 10 µM
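Also: drug exposure lasted seven days after spheroids formed for three days.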
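For viability, T/C in this document: percent of DMSO vehicle control viability which is 100%.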

Row | SMILES | IC50 [2] [nM] | IC50 [3] [nM] | IC50 [4] [nM] | IC50 [5] [nM] | viability, T/C [12] [%] | viability, T/C [13] [%] | viability, T/C [14] [%] | viability, T/C [15] [%] | viability, T/C [16] [%] | viability, T/C [17] [%] | viability, T/C [18] [%] | viability, T/C [19] [%] | viability, T/C [20] [%] | viability, T/C [21] [%] | viability, T/C [22] [%] | viability, T/C [23] [%] | viability, T/C [24] [%] | viability, T/C [25] [%] | viability, T/C [26] [%] | viability, T/C [27] [%] | other results
1 | COc1cc2nccc(Oc3ccc(NC(=O)C4(C(=O)Nc5ccc(F)cc5)CC4)cc3)c2cc1OC + C=CC(=O)N1CCN(c2nc(OCC3CCCN3C)nc3c2CCN(c2cccc4cccc(C)c24)C3)CC1CC#N | 1710 | 1310 | < 31.6 | < 31.6 | 89.8 | 83.9 | 84.4 | 62.5 | 35.1 | 20.6 | 82 | 83.2 | 82.4 | 55.5 | 29.2 | 18.4 | 45.6 | 39 | 38.2 | 22.9 | IC50 [1]: 2060 nM; viability, T/C [6]: 100%; viability, T/C [7]: 90.4%; viability, T/C [8]: 94.2%; viability, T/C [9]: 77.1%; viability, T/C [10]: 33.9%; viability, T/C [11]: 15.6%; viability, T/C [28]: 14.7%; viability, T/C [29]: 9.84%; viability, T/C [30]: 0.34%; viability, T/C [31]: 0.83%; viability, T/C [32]: 0.26%; viability, T/C [33]: 0.12%; viability, T/C [34]: 0.1%; viability, T/C [35]: 0.15%
2 | COc1cc2nccc(Oc3ccc(NC(=O)C4(C(=O)Nc5ccc(F)cc5)CC4)cc3)c2cc1OC + C=CC(=O)N1CCN(c2nc(=O)n(-c3c(C)ccnc3C(C)C)c3nc(-c4c(O)cccc4F)c(F)cc23)C(C)C1 | 1960 | 2000 | 1680 | 822 | 102 | 102 | 103 | 79.6 | 28.9 | 18.6 | 122 | 112 | 102 | 77 | 30.9 | 19.8 | 111 | 108 | 96.3 | 69.3 | IC50 [36]: < 31.6 nM; viability, T/C [28]: 27%; viability, T/C [29]: 17.2%; viability, T/C [30]: 74.1%; viability, T/C [31]: 77.6%; viability, T/C [32]: 62.9%; viability, T/C [33]: 49.6%; viability, T/C [34]: 18.9%; viability, T/C [35]: 14%; viability, T/C [37]: 18.9%; viability, T/C [38]: 25.4%; viability, T/C [39]: 15.7%; viability, T/C [40]: 22.5%; viability, T/C [41]: 11.1%; viability, T/C [42]: 6.69%
3 | CC1(C)CCC(CN2CCN(c3ccc(C(=O)NS(=O)(=O)c4ccc(NCC5CCOCC5)c([N+](=O)[O-])c4)c(Oc4cnc5[nH]ccc5c4)c3)CC2)=C(c2ccc(Cl)cc2)C1 + C=CC(=O)N1CCN(c2nc(OCC3CCCN3C)nc3c2CCN(c2cccc4cccc(C)c24)C3)CC1CC#N | 2100 | 1810 | 430 | < 31.6 | 98.1 | 103 | 100 | 96.1 | 24.7 | 4.98 | 88.2 | 98.4 | 83.2 | 90.2 | 12.6 | 4.29 | 58 | 59.7 | 52 | 35.3 | IC50 [1]: 2040 nM; viability, T/C [6]: 99.8%; viability, T/C [7]: 101%; viability, T/C [8]: 96.1%; viability, T/C [9]: 92.5%; viability, T/C [10]: 23.8%; viability, T/C [11]: 4.26%; viability, T/C [28]: 2.72%; viability, T/C [29]: 2.98%; viability, T/C [30]: 0.13%; viability, T/C [31]: 0.2%; viability, T/C [32]: 0.14%; viability, T/C [33]: 0.12%; viability, T/C [34]: 0.37%; viability, T/C [35]: 0.26%
4 | CC(C)NCC(C(=O)N1CCN(c2ncnc3c2C(C)CC3O)CC1)c1ccc(Cl)cc1 (configuration not stated) + C=CC(=O)N1CCN(c2nc(=O)n(-c3c(C)ccnc3C(C)C)c3nc(-c4c(O)cccc4F)c(F)cc23)C(C)C1 | > 10000 | > 10000 | 6050 | 1640 | 95.3 | 91.2 | 88.1 | 86.3 | 79.4 | 50.9 | 96.3 | 96.2 | 85.7 | 81.1 | 67.4 | 52.7 | 92.7 | 82.3 | 76.1 | 75.8 | IC50 [36]: < 31.6 nM; viability, T/C [28]: 63.8%; viability, T/C [29]: 39.8%; viability, T/C [30]: 51.9%; viability, T/C [31]: 63.9%; viability, T/C [32]: 58.7%; viability, T/C [33]: 53.1%; viability, T/C [34]: 44.4%; viability, T/C [35]: 25.9%; viability, T/C [37]: 18.6%; viability, T/C [38]: 22.1%; viability, T/C [39]: 17.8%; viability, T/C [40]: 15.3%; viability, T/C [41]: 18.3%; viability, T/C [42]: 11.8%
5 | C=CC(=O)N1CCN(c2nc(=O)n(-c3c(C)ccnc3C(C)C)c3nc(-c4c(O)cccc4F)c(F)cc23)C(C)C1 (configuration not stated) | – | – | – | – | – | – | – | – | – | – | – | – | – | – | – | – | – | – | – | – | IC50 (compound alone, run of 08/26/2021): 5.55 µM [middle of 5 runs]; IC50 (compound alone, run of 09/02/2021): 5.47 µM [middle of 6 runs]
6 | CCNC(=O)CC1N=C(c2ccc(Cl)cc2)c2cc(OC)ccc2-n2c(C)nnc21 (configuration not stated) + CC1OCC2(CCN(c3cnc(Sc4ccnc(N)c4Cl)c(N)n3)CC2)C1N | 287 | 48.4 | < 31.6 | < 31.6 | 69.1 | 60.6 | 48.1 | 40.1 | 29.4 | 27.5 | 53.5 | 45.5 | 31.4 | 31.7 | 25.1 | 19.7 | 45.6 | 43.7 | 33.5 | 31.6 | IC50 [36]: < 31.6 nM; viability, T/C [28]: 19.9%; viability, T/C [29]: 18.3%; viability, T/C [30]: 37.4%; viability, T/C [31]: 34.6%; viability, T/C [32]: 26.2%; viability, T/C [33]: 23%; viability, T/C [34]: 20%; viability, T/C [35]: 16.1%; viability, T/C [37]: 33.8%; viability, T/C [38]: 31.1%; viability, T/C [39]: 28.4%; viability, T/C [40]: 23.1%; viability, T/C [41]: 20.9%; viability, T/C [42]: 17.3%
